# Laboratory results published in patent publication US10597388B2, “Pyridazinone herbicides” (FMC CORPORATION, priority 2014, dated 2020).
# Tests used:
# Type in all cases: in vivo
# [1] = system: blackgrass (Alopecurus myosuroides); experiment: Test A greenhouse herbicide test, postemergence
# In short: (§1)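 Scores are visual injury ratings from 0 (no effect) to 100 (complete control) versus untreated plants, taken roughly 10 d after treatment in the greenhouse. Treatment was postemergence, on one- to two-leaf plants 2–10 cm high growing in a loam soil/sand mix.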
# [2] = system: galium (catchweed bedstraw, Galium aparine); experiment: Test A greenhouse herbicide test, postemergence
# In short: as §1
# kochia (Kochia scoparia) = experiment: Test C greenhouse herbicide test, postemergence
# In short: (§2)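 Seedlings are raised in pots of peat moss–vermiculite medium with starter nutrients, then receive postemergence test chemical at the 1- to 4-leaf stage. They are kept in the greenhouse 13 to 15 d and scored visually versus controls, 0 meaning no effect and 100 complete control.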
# [3] = system: oat, wild (wild oat, Avena fatua); experiment: Test C greenhouse herbicide test, postemergence
# In short: as §2
# [4] = system: pigweed (Amaranthus retroflexus); experiment: Test C greenhouse herbicide test, pre- and postemergence
# Excerpt: (§3) Seeds of plant species selected from blackgrass (Alopecurus myosuroides), ryegrass, Italian (Italian ryegrass, Lolium multiflorum), wheat (winter wheat, Triticum aestivum), galium (catchweed bedstraw, Galium aparine), corn (Zea mays), large crabgrass, large (large crabgrass, Digitaria sanguinalis), foxtail, giant (giant foxtail, Setaria faberii), johnsongrass (Sorghum halepense), lambsquarters (Chenopodium album), morningglory (Ipomoea coccinea), nutsedge, yellow (yellow nutsedge, Cyperus esculentus), pigweed (Amaranthus retroflexus), ragweed (common ragweed, Ambrosia elatior), soybean (Glycine max), barnyardgrass (Echinochloa crus-galli), oilseed rape (Brassica napus), waterhemp (common waterhemp, Amaranthus rudis), and velvetleaf (Abutilon theophrasti) were planted into a blend of loam soil and sand and treated preemergence with test chemicals formulated in a non-phytotoxic solvent mixture which included a surfactant.
# (§4) At the same time, plants selected from these crop and weed species and also chickweed (common chickweed, Stellaria media), kochia (Kochia scoparia), and oat, wild (wild oat, Avena fatua), were planted in pots containing Redi-Earth® planting medium (Scotts Company, 14111 Scottslawn Road, Marysville, Ohio 43041) comprising spaghnum peat moss, vermiculite, wetting agent and starter nutrients and treated with postemergence applications of test chemicals formulated in the same manner. Plants ranged in height from 2 to 18 cm (1- to 4-leaf stage) for postemergence treatments. Treated plants and controls were maintained in a greenhouse for 13 to 15 d, after which time all species were compared to controls and visually evaluated. Plant response ratings, summarized in Table C, are based on a scale of 0 to 100 where 0 is no effect and 100 is complete control. A dash (-) response means no test result.
# soybean (Glycine max) = experiment: as above
# Excerpt: as §3, §4
# [5] = system: velvetleaf (Abutilon theophrasti); experiment: as above
# Excerpt: as §3, §4
# [6] = system: blackgrass (Alopecurus myosuroides); experiment: as above
# Excerpt: as §3, §4
# [7] = system: galium (catchweed bedstraw, Galium aparine); experiment: as above
# Excerpt: as §3, §4
# [8] = system: nutsedge, yellow (yellow nutsedge, Cyperus esculentus); experiment: as above
# Excerpt: as §3, §4
# [9] = system: ryegrass, Italian (Italian ryegrass, Lolium multiflorum); experiment: as above
# Excerpt: as §3, §4
# [10] = system: barnyardgrass (Echinochloa crus-galli); experiment: as above
# Excerpt: as §3, §4
# [11] = system: ragweed (common ragweed, Ambrosia elatior); experiment: as above
# Excerpt: as §3, §4
# [12] = 125 g ai/ha, 0 to 100 scale where 0 is no effect and 100 is complete control
# [13] = 500 g ai/ha, visual rating after approx. 10 d, 0 to 100 scale (0 no effect, 100 complete control)
# [14] = Postemergence, 31 g ai/ha, scale 0 to 100 (0 no effect, 100 complete control)
# [15] = Postemergence, 62 g ai/ha, 0 to 100 scale (0 no effect, 100 complete control)
# [16] = Postemergence, 250 g ai/ha, scale 0 to 100, 0 no effect, 100 complete control, 13 to 15 d
# [17] = postemergence, 125 g ai/ha, scale 0 to 100, 0 no effect, 100 complete control
# [18] = Preemergence, 31 g ai/ha, scale 0 to 100, 0 is no effect, 100 is complete control
# [19] = Preemergence, 62 g ai/ha, scale 0 to 100, 0 is no effect, 100 is complete control
# [20] = Preemergence, 125 g ai/ha, scale 0 to 100, 0 is no effect, 100 is complete control
# [21] = Preemergence, 250 g ai/ha, scale 0 to 100, 0 no effect, 100 complete control
smiles,measurement,setting,value
CCC(=O)Oc1c(C)nn(C)c(=O)c1-c1ccc(Br)c2ccccc12 [Compound 134],"Plant response rating, Blackgrass",[1]; [12],60
same,"Plant response rating, Blackgrass",[1]; [13],70
same,"Plant response rating, Galium",[2]; [12],100
same,"Plant response rating, Galium",[2]; [13],100
same,"Plant response rating, Kochia",kochia (Kochia scoparia); [14],95
same,Kochia plant response rating,kochia (Kochia scoparia); [15],100
same,"Plant response rating, Kochia",kochia (Kochia scoparia); [16],100
same,Kochia plant response rating,kochia (Kochia scoparia); [17],100
same,"Plant response rating, Oat, Wild",[3]; [14],90
same,"Oat, Wild plant response rating",[3]; [15],90
same,"Plant response rating, Oat, Wild",[3]; [16],95
same,"Oat, Wild plant response rating",[3]; [17],95
same,"Plant response rating, Pigweed",[4]; [14],80
same,Pigweed plant response rating,[4]; [15],100
same,"Plant response rating, Pigweed",[4]; [16],100
same,"Plant response rating, Pigweed",[4]; [18],75
same,"Plant response rating, Pigweed",[4]; [19],100
same,"Plant response rating, Pigweed",[4]; [20],100
same,Pigweed plant response rating,[4]; [21],100
same,Pigweed plant response rating,[4]; [17],100
same,"Plant response rating, Soybean",soybean (Glycine max); [14],75
same,Soybean plant response rating,soybean (Glycine max); [15],70
same,"Plant response rating, Soybean",soybean (Glycine max); [16],85
same,"Plant response rating, Soybean",soybean (Glycine max); [18],40
same,"Plant response rating, Soybean",soybean (Glycine max); [19],45
same,"Plant response rating, Soybean",soybean (Glycine max); [20],65
same,Soybean plant response rating,soybean (Glycine max); [21],75
same,Soybean plant response rating,soybean (Glycine max); [17],70
same,"Plant response rating, Velvetleaf",[5]; [14],80
same,Velvetleaf plant response rating,[5]; [15],90
same,"Plant response rating, Velvetleaf",[5]; [16],100
same,"Plant response rating, Velvetleaf",[5]; [18],75
same,"Plant response rating, Velvetleaf",[5]; [19],90
same,"Plant response rating, Velvetleaf",[5]; [20],90
same,Velvetleaf plant response rating,[5]; [21],100
same,Velvetleaf plant response rating,[5]; [17],100
same,"Plant response rating, Blackgrass",[6]; [14],50
same,Blackgrass plant response rating,[6]; [15],45
same,"Plant response rating, Blackgrass",[6]; [16],98
same,"Plant response rating, Blackgrass",[6]; [18],20
same,"Plant response rating, Blackgrass",[6]; [19],40
same,"Plant response rating, Blackgrass",[6]; [20],40
same,Blackgrass plant response rating,[6]; [21],75
same,Blackgrass plant response rating,[6]; [17],50
same,"Plant response rating, Galium",[7]; [14],95
same,Galium plant response rating,[7]; [15],95
same,"Plant response rating, Galium",[7]; [16],100
same,"Plant response rating, Galium",[7]; [18],100
same,"Plant response rating, Galium",[7]; [19],98
same,"Plant response rating, Galium",[7]; [20],98
same,Galium plant response rating,[7]; [21],98
same,Galium plant response rating,[7]; [17],100
same,"Plant response rating, Nutsedge, Yellow",[8]; [14],75
same,"Nutsedge, Yellow plant response rating",[8]; [15],80
same,"Plant response rating, Nutsedge, Yellow",[8]; [16],90
same,"Plant response rating, Nutsedge, Yellow",[8]; [18],30
same,"Plant response rating, Nutsedge, Yellow",[8]; [19],45
same,"Plant response rating, Nutsedge, Yellow",[8]; [20],95
same,"Nutsedge, Yellow plant response rating",[8]; [21],90
same,"Nutsedge, Yellow plant response rating",[8]; [17],95
same,"Plant response rating, Ryegrass, Italian",[9]; [14],5
same,"Ryegrass, Italian plant response rating",[9]; [15],15
same,"Plant response rating, Ryegrass, Italian",[9]; [16],40
same,"Plant response rating, Ryegrass, Italian",[9]; [18],98
same,"Plant response rating, Ryegrass, Italian",[9]; [19],100
same,"Plant response rating, Ryegrass, Italian",[9]; [20],100
same,"Ryegrass, Italian plant response rating",[9]; [21],100
same,"Ryegrass, Italian plant response rating",[9]; [17],20
same,"Plant response rating, Barnyardgrass",[10]; [14],10
same,Barnyardgrass plant response rating,[10]; [15],20
same,"Plant response rating, Barnyardgrass","[10]; Postemergence, 125 g ai/ha, scale 0 to 100, 0 is no effect, 100 is complete control",40
same,"Plant response rating, Barnyardgrass",[10]; [16],55
same,"Plant response rating, Barnyardgrass",[10]; [18],5
same,"Plant response rating, Barnyardgrass",[10]; [19],40
same,"Plant response rating, Barnyardgrass",[10]; [20],70
same,Barnyardgrass plant response rating,[10]; [21],90
same,"Plant response rating, Ragweed",[11]; [14],0
same,Ragweed plant response rating,[11]; [15],5
same,"Plant response rating, Ragweed",[11]; [16],30
same,"Plant response rating, Ragweed",[11]; [18],70
same,"Plant response rating, Ragweed",[11]; [19],95
same,"Plant response rating, Ragweed",[11]; [20],95
same,Ragweed plant response rating,[11]; [21],98
same,Ragweed plant response rating,[11]; [17],5
